Data taken from patent US12043600B2, “Microbiocidal compounds” (SYNGENTA CROP PROTECTION AG, priority 2018, dated 2024).

Key:
Phytophthora infestans = test: whole plant or invertebrate; format: in vivo; conditions: in Solanum lycopersicum, foliar, read-out: control of Phytophthora infestans
[1] = tested on: Puccinia recondita f. sp. tritici; test: Puccinia recondita f. sp. tritici/Wheat/Leaf Disc Preventative (Brown Rust); format: in vivo; conditions: foliar, 200 ppm, wheat leaf disc preventative, compared to untreated control, read-out: control of Puccinia recondita f. sp. tritici
[2] = tested on: Glomerella lagenarium (Colletotrichum lagenarium); test: Glomerella lagenarium (Colletotrichum lagenarium)/Liquid Culture (Anthracnose); format: cell-based; conditions: Colletotrichum orbiculare, liquid culture, compared to untreated control
[3] = tested on: Monographella nivalis (Microdochium nivale); test: Monographella nivalis (Microdochium nivale)/Liquid Culture (Foot Rot Cereals); format: cell-based; conditions: liquid culture, compared to untreated control
Procedure, shortened: (§1)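 PDB + cryo-stored conidia; compound in DMSO pre-plated, spore broth added on top.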

[4] = tested on: Phaeosphaeria nodorum (Septoria nodorum); test: Phaeosphaeria nodorum (Septoria nodorum)/Wheat/Leaf Disc Preventative (Glume Blotch); format: in vivo; conditions: Parastagonospora nodorum, foliar, wheat leaf disc preventative, compared to untreated control
Procedure, shortened: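 Preventative test: compound spray first, then spore inoculation after 2 days on cv. Kanzler wheat leaf segments. Incubation in a climate cabinet at 20 °C and 75% rh under a 12 h light/12 h dark cycle. Activity rated as % control relative to untreated discs at 5–7 days post-application.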

[5] = tested on: Mycosphaerella graminicola (Septoria tritici); test: Mycosphaerella graminicola (Septoria tritici)/Liquid Culture (Septoria Blotch); format: cell-based; conditions: Zymoseptoria tritici; 20 ppm; liquid culture; compared to untreated control
Procedure, shortened: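 Results given as % disease control: test compound in DMSO was placed in wells first, then potato dextrose broth carrying cryostored fungal conidia was added.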

[6] = tested on: Magnaporthe grisea (Pyricularia oryzae); test: whole plant or invertebrate; format: in vivo; conditions: foliar, read-out: control of Magnaporthe grisea
[7] = tested on: Blumeria graminis f. sp. tritici (Erysiphe graminis f. sp. tritici); test: Blumeria graminis f. sp. tritici/Wheat/Leaf Disc Preventative (Powdery Mildew on Wheat); format: in vivo; conditions: foliar, wheat leaf disc preventative, compared to untreated control
Procedure, shortened: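 Preventative leaf-disc test: percent disease control versus untreated leaf segments read 6-8 days post-application. Compound spray applied to wheat cv. Kanzler segments on agar one day before shaking infected plants over them; incubation at 20° C and 60% rh, 24 h darkness then 12 h light/12 h dark cycles.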

[8] = tested on: Mycosphaerella arachidis (Cercospora arachidicola); test: Mycosphaerella arachidis (Cercospora arachidicola)/Liquid Culture (Early Leaf Spot); format: cell-based; conditions: liquid culture, compared to untreated control
Procedure, shortened: as §1

Sclerotinia sclerotiorum = test: Sclerotinia sclerotiorum/Liquid Culture (Cottony Rot); format: cell-based; conditions: liquid culture, compared to untreated control
Procedure: Mycelia fragments of a newly grown liquid culture of the fungus are directly mixed into nutrient broth (PDB potato dextrose broth). After placing a (DMSO) solution of test compound into a microtiter plate (96-well format) the nutrient broth containing the fungal material is added.

Plasmopara viticola = test: whole plant or invertebrate; format: in vivo; conditions: foliar, read-out: control of Plasmopara viticola
[9] = tested on: Puccinia recondita f. sp. tritici; test: Puccinia recondita f. sp. tritici/Wheat/Leaf Disc Curative (Brown Rust); format: in vivo; conditions: foliar, wheat leaf disc curative, compared to untreated control
Procedure, shortened: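 Formulated compound, diluted in water, is applied to inoculated wheat cv. Kanzler leaf segments on agar one day post-inoculation (pre-incubation dark, 19° C, 75% rh). After 6-8 days at 19° C, 75% rh and 12 h/12 h light, activity is rated as percent disease control relative to untreated segments.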

Pyrenophora teres = test: Pyrenophora teres/Barley/Leaf Disc Preventative (Net Blotch); format: in vivo; conditions: foliar, 200 ppm, barley leaf disc preventative, compared to untreated control, read-out: control of Pyrenophora teres
Procedure, shortened: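 Preventative leaf-disc test: inoculation with fungal spores took place 2 days after spraying segments of barley cv. Hasso, placed on agar, with water-diluted formulated compound. Read-out is % disease control per compound.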

[10] = Photostability assay (Atlas Suntest); format: physicochemical; conditions: Suntest 750 W/m^2, spotted on microscope slides
Procedure: The testing method to measure the photostability data of each compound in table is D1 is as specifically described below. The objective of the photostability assay was to determine the stability of the individual test compounds in a strictly controlled and reproducible environment allowing a comparison of their photostability.
Method: Compounds were dissolved in methanol (HPLC grade) to give 1 g/L stock solutions. Compound stock solution (2 μl) was spotted onto microscope slides in a 3D printed holder and put into the Atlas Suntest. The spectral output power of the Suntest was set to 750 W/m^2, which is considered typical of the daily maximum (noon) irradiance level on a very bright British Summer day. At specific time points slides were removed from the Suntest and placed in 4D vials. Wash solvent made up of 50:40:10 H2O:MeCN:THF (1 mL) is then added to the vials and whirlimixed. The resulting solution is then subsampled to an HPLC vial to be analysed. A Waters UPLC system with Photodiode Array was used with a Waters reverse phase column (BEH C18, 100×2.1 mm×1.7 μm) and acetonitrile (HPLC grade) acidified water (0.2% formic acid) mobile phase at a flow rate of 0.6 mL/min. Peak detection was at the optimum wavelength and peak areas were used for quantification
Initial and subsequent measurements of peak area attributable to the test compound were used to provide a % parent remaining at 3 hours.

[11] = tested on: Thanatephorus cucumeris (Rhizoctonia solani); test: Thanatephorus cucumeris (Rhizoctonia solani)/Liquid Culture (Foot Rot, Damping-Off); format: cell-based; conditions: liquid culture, compared to untreated control
Procedure: Mycelia fragments of a newly grown liquid culture of the fungus are directly mixed into nutrient broth (PDB potato dextrose broth). After placing a (DMSO) solution of the test compounds into a microtiter plate (96-well format), the nutrient broth containing the fungal material is added.

[12] = tested on: Botryotinia fuckeliana (Botrytis cinerea); test: Botryotinia fuckeliana (Botrytis cinerea)/Liquid Culture (Gray Mould); format: cell-based; conditions: liquid culture, compared to untreated control
Procedure: Conidia of the fungus from cryogenic storage are directly mixed into nutrient broth (Vogels broth). After placing a (DMSO) solution of test compound into a microtiter plate (96-well format), the nutrient broth containing the fungal spores is added.

Phakopsora pachyrhizi = test: Phakopsora pachyrhizi/Soybean/Preventative (Soybean Rust); format: in vivo; conditions: 288 h, Phakopsora pachyrhizi (Soybean rust)

| Structure (SMILES) | melting point [°C] | pest or weed control at 200 ppm (Phytophthora infestans) [%] | pest or weed control at 200 ppm [1] [%] | inhibition of growth at 20 ppm [2] [%] | inhibition of growth at 20 ppm [3] [%] | pest or weed control at 200 ppm [4] [%] | inhibition of growth at 20 ppm [5] [%] | pest or weed control at 200 ppm [6] [%] | pest or weed control at 200 ppm [7] [%] | inhibition of growth at 20 ppm [8] [%] | inhibition of growth at 20 ppm (Sclerotinia sclerotiorum) [%] | pest or weed control at 200 ppm (Plasmopara viticola) [%] | pest or weed control at 200 ppm [9] [%] | % Parent Remaining @ 3 hrs [10] [%] | inhibition of growth at 20 ppm [11] [%] | inhibition of growth at 20 ppm [12] [%] | further results |
| --- | --- | --- | --- | --- | --- | --- | --- | --- | --- | --- | --- | --- | --- | --- | --- | --- | --- |
| CO/C=C(\Oc1cc(-n2ccc(C(F)(F)F)n2)cc(C)c1C)C(=O)OC [Compound E-19, methyl (Z)-2-[2,3-dimethyl-5-[3-(trifluoromethyl)pyrazol-1-yl]phenoxy]-3-methoxy-prop-2-enoate] | 144 to 146 | ≥ 80 | ≥ 80 | ≥ 80 | ≥ 80 | ≥ 80 | ≥ 80 | ≥ 80 | ≥ 80 | ≥ 80 | ≥ 80 | ≥ 80 | – | – | – | – | – |
| CO/C=C(\Oc1cc(-n2ccc(C3CCC3)n2)c(F)cc1C)C(=O)OC [Compound E-18, methyl (Z)-2-[5-(3-cyclobutylpyrazol-1-yl)-4-fluoro-2-methyl-phenoxy]-3-methoxy-prop-2-enoate] | – | ≥ 80 | ≥ 80 | ≥ 80 | ≥ 80 | – | ≥ 80 | ≥ 80 | ≥ 80 | ≥ 80 | ≥ 80 | ≥ 80 | ≥ 80 | – | – | – | – |
| CO/C=C(\Oc1cc(-n2ccc(C(F)(F)F)n2)c(F)cc1C)C(=O)OC [Compound E-42, methyl (Z)-2-[4-fluoro-2-methyl-5-[3-(trifluoromethyl)pyrazol-1-yl]phenoxy]-3-methoxy-prop-2-enoate] | 104 to 108 | – | ≥ 80 | ≥ 80 | ≥ 80 | ≥ 80 | ≥ 80 | ≥ 80 | ≥ 80 | ≥ 80 | – | ≥ 80 | ≥ 80 | 24 | ≥ 80 | ≥ 80 | pest or weed control at 200 ppm (Pyrenophora teres): ≥ 80% |
| CCCc1ccn(-c2ccc(C)c(O/C(=C\OC)C(=O)OC)c2)n1 [Compound E-40, methyl (Z)-3-methoxy-2-[2-methyl-5-(3-propylpyrazol-1-yl)phenoxy]prop-2-enoate] | 91 to 94 | ≥ 80 | – | ≥ 80 | ≥ 80 | ≥ 80 | ≥ 80 | ≥ 80 | ≥ 80 | ≥ 80 | – | ≥ 80 | – | 65 | ≥ 80 | ≥ 80 | pest or weed control at 0.6 ppm (Phakopsora pachyrhizi; 0.6 ppm): 10%; pest or weed control at 2 ppm (Phakopsora pachyrhizi; 2 ppm): 35%; pest or weed control at 6 ppm (Phakopsora pachyrhizi; 6 ppm): 90%; pest or weed control at 20 ppm (Phakopsora pachyrhizi; 20 ppm): 95%; pest or weed control at 60 ppm (Phakopsora pachyrhizi; 60 ppm): 100%; pest or weed control at 200 ppm (Phakopsora pachyrhizi; 200 ppm, read-out: control (%)): 100% |
| CO/C=C(\Oc1cc(-n2cc(Br)c(C)n2)ccc1C)C(=O)OC [Compound E-117, methyl (Z)-2-[5-(4-bromo-3-methyl-pyrazol-1-yl)-2-methyl-phenoxy]-3-methoxy-prop-2-enoate] | 120 to 122 | – | ≥ 80 | ≥ 80 | ≥ 80 | – | ≥ 80 | – | ≥ 80 | ≥ 80 | ≥ 80 | ≥ 80 | ≥ 80 | – | – | – | – |
| CCCCc1cnn(-c2ccc(C)c(O/C(=C\OC)C(=O)OC)c2)n1 [Compound F-3, methyl (Z)-2-[5-(4-butyltriazol-2-yl)-2-methyl-phenoxy]-3-methoxy-prop-2-enoate] | 68 to 70 | – | ≥ 80 | ≥ 80 | ≥ 80 | ≥ 80 | ≥ 80 | ≥ 80 | – | ≥ 80 | ≥ 80 | ≥ 80 | ≥ 80 | – | – | – | – |
| CCC(C)c1ccn(-c2ccc(C)c(O/C(=C\OC)C(=O)OC)c2)n1 (centres unmarked) [Compound E-44, methyl (Z)-3-methoxy-2-[2-methyl-5-(3-sec-butylpyrazol-1-yl)phenoxy]prop-2-enoate] | 110 to 113 | ≥ 80 | – | ≥ 80 | ≥ 80 | ≥ 80 | ≥ 80 | ≥ 80 | ≥ 80 | ≥ 80 | – | ≥ 80 | – | 69 | ≥ 80 | ≥ 80 | pest or weed control at 200 ppm (Pyrenophora teres): ≥ 80% |
